{
  "source": "patent US11141397B2",
  "about": "“Composition for improving efficacy of L-DOPA treatment” (priority 2017, dated 2021)",
  "test_system": "intrastriatal rotenone mouse model for PD",
  "test": "Rotarod test (motor function) in the intrastriatal rotenone model",
  "type": "in vivo, C57BL/6J mice",
  "protocol": "Forty-eight seven week-old C57BL/6J mice (Charles River, The Netherlands) were housed at room temperature under a 12 h light/dark cycle. Food and water were provided ad libitum. […] Mice underwent stereotaxic surgery under isoflurane anesthesia: a hole was drilled in the skull and a cannula inserted in the right striatum at the following stereotaxic coordinates: AP +0.4, ML -2.0 from bregma, and DV -3.3 below dura. Rotenone-treated animals were injected with 5.4 μg of freshly prepared rotenone solution (dissolved in 2 μl DMSO). Sham-treated animals were injected with the vehicle (2 μl DMSO). 93 days after surgery the mice were euthanized by decapitation. The motor performance of each mouse was assessed in the Rotarod test as described in Inden et al. “Neurodegeneration of mouse nigrostriatal dopaminergic system induced by repeated oral administration of rotenone is prevented by 4-phenylbutyrate, a chemical chaperone” J. […] Briefly, mice were placed on an accelerating rod with speeds starting with 2 rpm and gradually increasing to 20 rpm. Time to first fall was recorded for a maximum of 300 s. […] Animals were divided into four groups of 12 animals (Sham+CD, Sham+AD, Rotenone+CD, and Rotenone+AD). […] The AD also contained supplementary amounts of choline, phospholipids, selenium, folic acid, and vitamins B6, B12, C, D, and E, above standard levels in the control diet. […] The rotarod test was started 1.5h after benserazide administration and performed as described below. […] ANOVAs were followed by a Tukey's multiple comparison test when appropriate. For the rotarod test performance over time, data were analyzed with a general linear model repeated measure ANOVA with the within subject factor time and the between subject factors surgery and diet. […] Analyses were performed using SPSS 22.0.",
  "note": "“Also recorded” adds a separate entry of the source.",
  "data": [
    {"smiles": "N[C@@H](Cc1ccc(O)c(O)c1)C(=O)O", "note": "[levodopa, L-3,4-di-hydroxy-phenylalanine]", "values": [
      {"measurement": "rotarod performance (time on rotarod)", "setting": "days 26 and 27 after surgery, 60 minutes after 20 mg/kg oral levodopa vs vehicle, before dietary intervention, F(1,92)=24.77, p<0.0001", "result": "overall effect of levodopa on the animals' motor performances"},
      {"measurement": "effect on rotenone-induced motor dysfunction (rotarod)", "setting": "overall effect, day 65-93, FIG. 1, three-way ANOVA", "result": "there was an effect; also recorded: alleviated rotenone-induced motor dysfunction"},
      {"measurement": "ability to remain on the rod", "setting": "rotenone-injected mice on AD, levodopa 10 or 20 mg/kg vs saline or 5 mg/kg, day 65-93, p<0.001", "result": "better ability to remain on the rod"},
      {"measurement": "rotarod performance", "setting": "rotenone-treated animals on CD, levodopa 20 mg/kg vs 5 mg/kg or saline, day 65-93, p<0.01", "result": "performed significantly better"}
    ]}
  ]
}
